Results published in patent publication US12458614B2, “Therapeutic agents for improved mobility and cognitive function and for treating neurodegenerative diseases and lysosomal storage disorders” (priority 2017, dated 2025).
Entries after “also recorded” stand apart in the source; their conditions may differ.

Legend:
[1] = tested on: patients with downbeat nystagmus; test: Case studies, downbeat nystagmus; format: in vivo, human; conditions: downbeat nystagmus Patients 1 (10 mg twice daily, four weeks) and 2
[2] = tested on: patients with multiple system atrophy Parkinson type (MSA-P); test: Case studies, multiple system atrophy Parkinson type; format: in vivo, human; conditions: MSA-P Patient 3
Source text: Medication was stopped. […] The patient evaluated after one month on acetyl-DL-leucine. […] Episodes of mental confusion completely disappeared. The patient's cognitive structure seemed much clearer and straighter. […] The patient's spouse supported continuing the medication.

[3] = tested on: patient with corticobasal syndrome; test: Case study, corticobasal syndrome; format: in vivo, human; conditions: treatment with L-Dopa
Description: Gait analysis was performed before treatment commenced.

[4] = tested on: patients with progressive supranuclear palsy; test: Case studies, progressive supranuclear palsy; format: in vivo, human; conditions: individual PSP patients 1 to 4
Description: After 27 days of acetyl-leucine treatment, medication was stopped and the patient was re-examined 60 days later. […] Gait analysis was performed before treatment commenced. After 17 days of treatment, medication was stopped and the patient was re-examined 4 days later. […] Gait analysis was performed before treatment commenced. After three weeks of treatment, medication was stopped and the patient was re-examined.

[5] = tested on: patient with progressive gait disorder; test: Case study Example 26, quantitative gait analysis; format: in vivo, human; conditions: treatment with L-Dopa
[6] = tested on: person with balance disorder/senile gait disorder; test: Case study Example 23; format: in vivo, human; conditions: treatment with L-Dopa
[7] = tested on: patients with multiple system atrophy Parkinson type (MSA-P); test: Case studies, multiple system atrophy Parkinson type; format: in vivo, human; conditions: MSA-P Patient 1, 100/25 mg 3× daily
[8] = tested on: patient with frontotemporal dementia with parkinsonism; test: Case study, frontotemporal dementia with parkinsonism; format: in vivo, human; conditions: treatment with L-Dopa and Ropinirol
Source text: After approximately one month of acetyl-leucine treatment, medication was stopped and the patient was re-examined 13 days later.

[9] = tested on: patient with Lewy Body dementia; test: Case study, Lewy Body dementia; format: in vivo, human; conditions: Levodopa 100 mg 4× daily and Quetiapin 25 mg at night
Description: The patient started taking acetyl-leucine (3 g/day for one week; 5 g/day thereafter) and was evaluated after four weeks. […] Medication was reduced to 3 g/day, and the patient was instructed to stop medication about two weeks later.

[10] = tested on: patients with amyotrophic lateral sclerosis (ALS); test: Case studies, amyotrophic lateral sclerosis; format: in vivo, human; conditions: ALS Patient 1
Source text: The results were documented by video.

[11] = tested on: rat model of an acute unilateral labyrinthectomy; conditions: acute unilateral labyrinthectomy (Gunther 2015); cited from earlier work

Nc1ccncc1 [4-aminopyridine]
Benefit of prior medication [1]: did not give rise to any benefit
Benefit of prior medication ([1]; listed as Fampyra®): did not benefit

N[C@@H](Cc1ccc(O)c(O)c1)C(=O)O [L-Dopa]
Tolerability of Levodopa therapy [2]: suspended due to side effects
Response to prior medication [3]: no improvement
Levodopa response [4]: little improvement
Levodopa response ([4]; listed as levodopa): no levodopa response; also recorded: slight levodopa response
Response to prior medication [5]: No improvement
Response to prior medication [6]: no improvement
Levodopa response [7]: discreet Levodopa response
Response to prior medication [8]: little improvement
Response to prior medication [9]: improved the symptomatology

OCCOCCN1CCN(C2=Nc3ccccc3Sc3ccccc32)CC1 [Quetiapin]
Response to prior medication [9]: improved the symptomatology

Nc1nc2ccc(OC(F)(F)F)cc2s1 [Riluzol]
Clinical symptomatology under prior medication [10]: remained unchanged

CCCN(CCC)CCc1cccc2c1CC(=O)N2 [Ropinirol]
Response to prior medication [8]: little improvement

CC(=O)N[C@@H](CC(C)C)C(=O)O [acetyl-L-leucine]
postural compensation [11]: significant effect
